# According to patent US11780832B2, “Lactivicin compounds, their preparation and use as antibacterial agents” (priority 2021, dated 2023):
# Columns and labels:
# Format in all cases: cell-based
# [1] = tested on: Enterobacter cloacae species complex Elevated AmpC; test: Synergistic activity: MIC in the presence of Avibactam
# Method: (§1) Isolates were sub-cultured onto appropriate media and stocked in skim milk at −80° C. Following two subcultures from frozen stock, in vitro antimicrobial susceptibility testing was performed using the Clinical and Laboratory Standards Institute (CLSI) broth microdilution method. Briefly, fresh cultures were suspended in culture media to give a final stock inoculum size of 5×10^7 colony forming units per milliliter of broth (CFU/mL). Test compounds were prepared at a stock solution concentration equal to 128 μg/mL, then diluted to give a final an initial working concentration of 32 μg/mL. 100 μL of the stock solutions were added to the first wells in a 96-well plate and were then diluted using a 2-fold dilution method to give a range of 32-0.025 μg/mL. 100 μL of the bacterial suspensions were then added to the 96-well plates to give a final working inoculum size of 5×10^5 CFU/mL. The final compound concentration range was 16-0.0125 μg/mL. […] MICs for comparator agents were determined using custom-designed, in-house prepared 96-well broth microdilution panels.
# (§2) The same method used to test the activity of the claimed compounds was used to determine their synergistic activity when combined with a β-lactamase inhibitor except that either a fixed concentration or fixed ratio of a β-lactamase inhibitor was added to the 96-well plates prior to adding the bacteria cultures. Synergistic activity was defined as the reduction of MIC of a given compound when tested using the β-lactamase inhibitor versus testing the compound in the absence of a β-lactamase inhibitor.
# [2] = tested on: Escherichia coli CMY-DHA; test: as above
# Method: as §1, §2
# [3] = tested on: Citrobacter freundii species complex Elevated AmpC; test: as above; details: row r16, in the presence of Avibactam @ 4 μg/mL
# Method: as §1, §2
# [4] = tested on: Escherichia coli Elevated AmpC; test: as above
# Method: as §1, §2
# [5] = tested on: Proteus mirabilis CMY-DHA; test: as above; details: row r36, in the presence of Avibactam @ 4 μg/mL
# Method: as §1, §2
# [6] = tested on: Klebsiella pneumoniae CMY-DHA; test: as above; details: row r32, in the presence of Avibactam @ 4 μg/mL
# Method: as §1, §2
# [7] = tested on: Serratia marcescens AmpC overexpressed; test: MIC, CLSI broth microdilution
# In short: (§3)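 Each strain carries identified resistance markers and was drawn from ATCC or clinical specimens. Susceptibility is tested per CLSI broth microdilution at a final inoculum of 5×10^5 CFU/mL, over a final compound range of 16-0.0125 μg/mL.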
# [8] = tested on: Pseudomonas aeruginosa ATCC 27853; test: MIC, CLSI broth microdilution; details: ATCC27853
# In short: (§4)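 Inhibitory concentrations were measured in broth following CLSI microdilution rules. Test organisms, each with known resistance determinants, were inoculated at a final 5×10^5 CFU/mL into wells holding compound at final concentrations from 16 down to 0.0125 μg/mL.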
# [9] = tested on: Pseudomonas aeruginosa AmpC overexpressed; test: MIC, CLSI broth microdilution
# In short: as §3
# [10] = tested on: Klebsiella pneumoniae OXA-48, SHV-1; test: MIC, CLSI broth microdilution
# In short: as §3
# [11] = tested on: Klebsiella oxytoca KPC-2, TEM-1; test: MIC, CLSI broth microdilution; details: KPC-2, TEM-1, read-out: MIC
# In short: as §4
# [12] = tested on: Escherichia coli CMY-2; test: MIC, CLSI broth microdilution; details: CMY2
# In short: as §4
# [13] = tested on: Escherichia coli ATCC 25922; test: MIC, CLSI broth microdilution; details: ATCC25922
# In short: as §4
# [14] = tested on: Escherichia coli CTX-M-15; test: MIC, CLSI broth microdilution; details: CTXM15
# In short: as §4
# [15] = tested on: Enterobacter cloacae species complex NDM-1; test: MIC, CLSI broth microdilution
# In short: as §4
# [16] = tested on: Acinetobacter baumannii ATCC 19606; test: MIC, CLSI broth microdilution; details: ATCC19606
# In short: as §4
# [17] = tested on: Enterobacter cloacae species complex Elevated AmpC; test: MIC against Elevated AmpC producing strains, compound alone
# Method: (§5) Gram-negative and Gram-positive bacterial strains used during the in vitro minimum inhibitory concentration (MIC) determination were obtained either from the American Type Culture Collection (ATCC) or from clinical specimens. All strains were characterized genotypically and the respective antibiotic resistance markers for each strain were identified.
# as §1
# [18] = tested on: Citrobacter freundii species complex Elevated AmpC; test: as above; details: row r16
# Method: as §5, §1
# [19] = tested on: Escherichia coli Elevated AmpC; test: as above
# Method: as §5, §1
# [20] = tested on: Escherichia coli CMY-DHA; test: MIC against CMY-DHA producing strains, compound alone
# Method: as §5, §1
# [21] = tested on: Proteus mirabilis CMY-DHA; test: as above; details: row r36
# Method: as §5, §1
# [22] = tested on: Klebsiella pneumoniae CMY-DHA; test: as above; details: row r32
# Method: as §5, §1
# [23] = in the presence of Avibactam @ 4 μg/mL
# [24] = strain of row r7, in the presence of Avibactam @ 4 μg/mL
# [25] = strain of row r20, in the presence of Avibactam @ 4 μg/mL
# [26] = strain of row r26, in the presence of Avibactam @ 4 μg/mL
# [27] = strain of row r27, in the presence of Avibactam @ 4 μg/mL
# [28] = strain of row r28, in the presence of Avibactam @ 4 μg/mL
# [29] = strain of row r29, in the presence of Avibactam @ 4 μg/mL
# [30] = strain of row r30, in the presence of Avibactam @ 4 μg/mL
# [31] = strain of row r31, in the presence of Avibactam @ 4 μg/mL
# [32] = strain of row r34, in the presence of Avibactam @ 4 μg/mL
# [33] = strain of row r35, in the presence of Avibactam @ 4 μg/mL
# [34] = strain of row r10, in the presence of Avibactam @ 4 μg/mL
# [35] = strain of row r11, in the presence of Avibactam @ 4 μg/mL
# [36] = strain of row r12, in the presence of Avibactam @ 4 μg/mL
# [37] = strain of row r13, in the presence of Avibactam @ 4 μg/mL
# [38] = strain of row r14, in the presence of Avibactam @ 4 μg/mL
# [39] = strain of row r15, in the presence of Avibactam @ 4 μg/mL
smiles,measurement,setting,value
"CC(C)(O/N=C(\C(=O)N[C@@H]1C(=O)N2C(C(=O)[O-])=C(C[n+]3ccccc3)CS[C@H]12)c1csc(N)n1)C(=O)O [Ceftazidime, ceftazidime, reference compound]",MIC,[1]; [23],0.25 µg/mL
same,MIC,[1]; [24],0.5 µg/mL
same,MIC,[1]; [25],0.03 µg/mL
same,MIC,[2]; [26],0.5 µg/mL
same,MIC,[2]; [27],0.5 µg/mL
same,MIC,[2]; [28],0.06 µg/mL
same,MIC,[2]; [29],0.12 µg/mL
same,MIC,[2]; [30],<=0.015 μg/mL
same,MIC,[2]; [31],0.12 µg/mL
same,MIC,[2]; [32],0.5 µg/mL
same,MIC,[2]; [33],0.25 µg/mL
same,MIC,[3],0.25 µg/mL
same,MIC,[4]; [34],0.12 µg/mL
same,MIC,[4]; [35],0.06 µg/mL
same,MIC,[4]; [36],0.12 µg/mL
same,MIC,[4]; [37],0.12 µg/mL
same,MIC,[4]; [38],0.12 µg/mL
same,MIC,[4]; [39],0.5 µg/mL
same,MIC,[5],0.12 µg/mL
same,MIC,[6],0.12 µg/mL
same,MIC,[7],0.5 µg/mL
same,MIC,[8],1 µg/mL
same,MIC,[9],8 µg/mL
same,MIC,[10],0.5 µg/mL
same,MIC,[11],1 µg/mL
same,MIC,[12],> 32 µg/mL
same,MIC,[13],0.25 µg/mL
same,MIC,[14],4 µg/mL
same,MIC,[15],> 32 µg/mL
same,MIC,[16],8 µg/mL
same,MIC,[17],16 µg/mL
same,MIC,[17]; strain of row r7,> 32 µg/mL
same,MIC,[17]; strain of row r20,16 µg/mL
same,MIC,[18],> 32 µg/mL
same,MIC,[19]; strain of row r10,8 µg/mL
same,MIC,[19]; strain of row r11,8 µg/mL
same,MIC,[19]; strain of row r12,8 µg/mL
same,MIC,[19]; strain of row r13,4 µg/mL
same,MIC,[19]; strain of row r14,16 µg/mL
same,MIC,[19]; strain of row r15,16 µg/mL
same,MIC,[20]; strain of row r26,32 µg/mL
same,MIC,[20]; strain of row r27,32 µg/mL
same,MIC,[20]; strain of row r28,8 µg/mL
same,MIC,[20]; strain of row r29,32 µg/mL
same,MIC,[20]; strain of row r30,4 µg/mL
same,MIC,[20]; strain of row r31,32 µg/mL
same,MIC,[20]; strain of row r34,> 32 µg/mL
same,MIC,[20]; strain of row r35,> 32 µg/mL
same,MIC,[21],16 µg/mL
same,MIC,[22],16 µg/mL
"Nc1nc(/C(=N/OC2(C(=O)O)CC2)C(=O)N[C@H]2CON(C3(C(=O)O)C[C@H](N4Cc5cc(O)c(O)cc5C4=O)C(=O)O3)C2=O)cs1 (stereo partly drawn) [Cmpd 28, (4S)-2-[(4S)-4-{[(2Z)-2-(2-amino-1,3-thiazol-4-yl)-2-{[(1-carboxycyclopropyl)oxy]imino}acetyl]amino}-3-oxo-1,2-oxazolidin-2-yl]-4-(5,6-dihydroxy-1-oxo-1,3-dihydro-2H-isoindol-2-yl)-5-oxooxolane-2-carboxylic acid]",MIC,[1]; [23],0.25 µg/mL
same,MIC,[1]; [24],0.5 µg/mL
same,MIC,[1]; [25],0.015 µg/mL
same,MIC,[2]; [26],0.12 µg/mL
same,MIC,[2]; [27],<=0.008 μg/mL
same,MIC,[2]; [28],0.06 µg/mL
same,MIC,[2]; [29],0.12 µg/mL
same,MIC,[2]; [30],<=0.008 μg/mL
same,MIC,[2]; [31],0.12 µg/mL
same,MIC,[2]; [32],0.015 µg/mL
same,MIC,[2]; [33],0.03 µg/mL
same,MIC,[3],0.12 µg/mL
same,MIC,[4]; [34],0.015 µg/mL
same,MIC,[4]; [35],0.06 µg/mL
same,MIC,[4]; [36],0.03 µg/mL
same,MIC,[4]; [37],<=0.008 μg/mL
same,MIC,[4]; [38],0.06 µg/mL
same,MIC,[4]; [39],0.25 µg/mL
same,MIC,[5],0.03 µg/mL
same,MIC,[6],0.12 µg/mL
same,MIC,[7],0.25 µg/mL
same,MIC,[8],1 µg/mL
same,MIC,[9],2 µg/mL
same,MIC,[10],0.0149 µg/mL
same,MIC,[11],0.0149 µg/mL
same,MIC,[12],8 µg/mL
same,MIC,[13],0.25 µg/mL
same,MIC,[14],1 µg/mL
same,MIC,[15],2 µg/mL
same,MIC,[16],0.12 µg/mL
same,MIC,[17],2 µg/mL
same,MIC,[17]; strain of row r7,8 µg/mL
same,MIC,[17]; strain of row r20,1 µg/mL
same,MIC,[18],1 µg/mL
same,MIC,[19]; strain of row r10,0.06 µg/mL
same,MIC,[19]; strain of row r11,0.5 µg/mL
same,MIC,[19]; strain of row r12,1 µg/mL
same,MIC,[19]; strain of row r13,0.25 µg/mL
same,MIC,[19]; strain of row r14,0.12 µg/mL
same,MIC,[19]; strain of row r15,1 µg/mL
same,MIC,[20]; strain of row r26,4 µg/mL
same,MIC,[20]; strain of row r27,0.25 µg/mL
same,MIC,[20]; strain of row r28,0.5 µg/mL
same,MIC,[20]; strain of row r29,4 µg/mL
same,MIC,[20]; strain of row r30,1 µg/mL
same,MIC,[20]; strain of row r31,8 µg/mL
same,MIC,[20]; strain of row r34,1 µg/mL
same,MIC,[20]; strain of row r35,2 µg/mL
same,MIC,[21],2 µg/mL
same,MIC,[22],2 µg/mL
